Results: patent publication US20240139104A1, “MICELLE RELEASING THERMOSENSITIVE HYDROGELS AS A THERAPEUTIC DELIVERY SYSTEM” (GEORGIA TECH RESEARCH CORPORATION, priority 2021, published 2024)

Columns and labels:
[1] = Absorption/fluorescence and photostability of IR780 exposed to daylight; assay type: physicochemical; settings: 10% ethanol
[2] = tested on: B16F10-OVA tumor and TdLNs; settings: 15 μL of 0.016 mg mL^−1 IR780 intratumoral, IVIS 24 h after injection
[3] = tested on: B16F10-OVA tumor; assay: GSNO (i.t.) and aCTLA-4 (i.p.) therapy without hydrogel, dual tumor model; assay type: in vivo, mice; settings: GSNO 480 μg kg^−1 i.t. day 7; aCTLA-4 100 μg mouse^−1 i.p. day 8, 11, 14; compared to saline
Procedure: In brief, 10^5 B16F10-OVA (30 μL) was inoculated in left dorsal skin on day 0 and in right dorsal skin on day 4 to establish dual tumor model. 30 μL of saline or GSNO (480 μg kg ^−1) was administered to the left tumor on day 7 and 30 μL of aCTLA-4 (100 μg mouse^−1) was administered intraperitoneally on day 8, 11, 14.

[4] = tested on: immune cells in blood; assay: Immune cell profiles in blood (flow cytometry) after GSNO and aCTLA-4; assay type: in vivo, mice; settings: CD4+T, CD8+T, NKT populations
Procedure: Immune cells in blood were collected and profiled to delineate the systemic immunity in the combinational use of GSNO and aCTLA-4 (FIG. 29). In brief, ACK lysis buffer was treated to the blood taken on day 9 to harvest immune cells in blood by removing red blood cells. All cells were stored on ice<2 h prior to use. Cells for flow cytometry were prepared by six steps with PBS, FACS buffer, or permeabilization buffer (eBioscience™ Foxp3/Transcription Factor Staining Buffer Set, Invitrogen™) wash; 2.4G2 staining on ice for 5 min, Zombie Aqua fixable viability dye staining at room temperature for 30 min, […]-MHCI-PE tetramer (NIH Tetramer Core Facility, Atlanta, Georgia) staining on ice for 15 min, antibody mixtures staining on ice for 30 min, fixing and permeabilizing with Foxp3 Fixation/Permeabilization working solution (eBioscience™ Foxp3/Transcription Factor Staining Buffer Set, Invitrogen™) on ice for 60 min, and FoxP3 staining on ice for 75 min. LSR Fortessa flow cytometry and flowJo were employed to analyze and profiles the stained cells.

| SMILES | time to complete photobleaching [1] | IR780 signal in injected tumor tissues and TdLNs [2] | therapeutic effects (1º and 2º tumor growth) [3] | systemic activation and expansion of T cell, NK and NKT in blood [4] |
| --- | --- | --- | --- | --- |
| CCCN1C(=CC=C2CCCC(C=CC3=[N+](CCC)c4ccccc4C3(C)C)=C2Cl)C(C)(C)c2ccccc21.[I-] [IR780, IR780 iodide] | ≤ 24 h | cleared quickly from the injected tumor tissues and exhibited negligible signals in the TdLNs | – | – |
| N[C@@H](CCC(=O)N[C@@H](CSN=O)C(=O)NCC(=O)O)C(=O)O [GSNO, S-nitrosoglutathione] | – | – | did not lead to any therapeutic effects | failed to induce systemic activation and expansion of T cell, NK and NKT response |
